{
  "source": "PubChem BioAssay AID651865",
  "about": "(The Scripps Research Institute Molecular Screening Center, 2012)",
  "molecular_target": "Protein-arginine deiminase type-2 (Homo sapiens) (UniProt Q9Y2J8)",
  "sequence (Q9Y2J8 whole entry, looked up)": "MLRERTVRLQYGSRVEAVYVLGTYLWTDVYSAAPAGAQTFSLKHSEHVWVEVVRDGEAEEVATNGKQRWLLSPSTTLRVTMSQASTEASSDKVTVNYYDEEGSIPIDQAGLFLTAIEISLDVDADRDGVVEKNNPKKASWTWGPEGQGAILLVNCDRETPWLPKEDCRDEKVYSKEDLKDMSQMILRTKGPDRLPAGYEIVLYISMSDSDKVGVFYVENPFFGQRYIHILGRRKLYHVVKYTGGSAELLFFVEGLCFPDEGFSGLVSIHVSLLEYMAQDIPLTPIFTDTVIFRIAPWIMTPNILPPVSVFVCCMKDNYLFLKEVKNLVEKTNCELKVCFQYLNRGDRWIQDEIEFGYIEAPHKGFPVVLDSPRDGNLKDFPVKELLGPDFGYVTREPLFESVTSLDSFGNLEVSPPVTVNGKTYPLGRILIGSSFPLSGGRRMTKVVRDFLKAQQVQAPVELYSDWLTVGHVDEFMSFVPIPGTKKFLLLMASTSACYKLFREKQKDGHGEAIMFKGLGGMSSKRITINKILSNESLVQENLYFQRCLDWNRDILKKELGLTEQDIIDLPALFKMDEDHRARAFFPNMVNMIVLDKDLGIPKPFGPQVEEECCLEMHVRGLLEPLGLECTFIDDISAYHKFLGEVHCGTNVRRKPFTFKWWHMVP",
  "assay": "PubChem AID 651865",
  "conditions": "recombinant PAD2, BAEE citrulline colorimetric, inactivation kinetics; hits give high values",
  "data": [
    {"smiles": "NC1=CC(=O)c2ccc(-c3cccc(C(=O)O)n3)nc2C1=O", "values": [
      {"measurement": "kinact/KI", "value": 122, "unit": "M⁻¹ s⁻¹"}
    ]}
  ]
}
